The target in one assay is T1, human IRAK-4 (Homo sapiens, UniProt Q9NWZ3).
T1 construct: purchased Carna Biosciences 09-145
T1 sequence (Q9NWZ3 1-460): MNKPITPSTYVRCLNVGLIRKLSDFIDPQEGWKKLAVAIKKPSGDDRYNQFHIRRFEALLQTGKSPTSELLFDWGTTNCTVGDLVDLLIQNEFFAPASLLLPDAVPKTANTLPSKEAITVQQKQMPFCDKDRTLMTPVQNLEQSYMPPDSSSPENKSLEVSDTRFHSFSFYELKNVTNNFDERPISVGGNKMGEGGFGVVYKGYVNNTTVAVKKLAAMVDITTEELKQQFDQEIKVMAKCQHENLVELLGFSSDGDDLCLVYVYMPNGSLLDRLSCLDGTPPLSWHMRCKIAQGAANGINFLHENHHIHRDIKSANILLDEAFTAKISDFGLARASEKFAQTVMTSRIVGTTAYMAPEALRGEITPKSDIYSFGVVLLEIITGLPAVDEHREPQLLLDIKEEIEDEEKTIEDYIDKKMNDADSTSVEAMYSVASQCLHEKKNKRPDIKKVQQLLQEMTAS
Nature of the assay: IC50 determination for human IRAK-4, radioactive filter plate assay. Type of assay: biochemical. To be noted: RIP140 substrate, 1 μM ATP + [γ-33P]ATP, 30° C., 45 min; read-out: hIRAK-4 IC50. The procedure:
The IC50 value for IRAK-4 is determined in a radioactive filter plate assay. The principle of the assay consists in the measurement of incorporated ^33P into the RIP140 substrate upon phosphorylation by the enzyme IRAK-4 using [γ-^33P]ATP and ATP. Unincorporated ^33P is removed by loading the samples on a filter plate (using a harvester, PerkinElmer) and 6 subsequent washing steps. Incorporated ^33P in RIP140 is measured by a scintillation counter (Topcount, PerkinElmer) after addition of MicroScint™-20 (PerkinElmer, 6013621) to the filter plates.
5 μL of a water dilution series of test compound (starting from 20 μM or 6.6 μM highest concentration), from a 100% DMSO stock solution, 1/5 dilution, is added to the wells (final DMSO concentration of 1% in reaction assay). IRAK-4 (Carna Biosciences, 09-145) and RIP140 (SEQ ID1, cf. Table VII) are used at a final concentration of 10 ng/mL and 4 μM, respectively. The enzyme and substrate are diluted in 25 mM Tris pH 7.5, 0.025% Triton X-100, 5 mM MnCl2, and 2 mM DTT to a total volume of 11 μL. The reaction is started by addition of 9 μL of 1 μM ATP (Sigma, A6419-5G)+0.25 μCi [γ-^33P]ATP (PerkinElmer, NEG602K001MC), diluted in the same buffer as enzyme and substrate. The mixture is incubated at 30° C. for 45 min. The reaction is terminated by adding 25 μL of 150 mM phosphoric acid (VWR, 1.00573.1000). Samples are transferred to filter plates and incorporated radioactivity is measured using a scintillation counter.
10 μM staurosporine (1% DMSO) is used as positive control (100% inhibition); vehicle (water+1% DMSO) as negative control (0% inhibition).

Assay [1] deals with TNFα triggered IL-6 release in SW1353 cells. The experiment in a line: SW1353 cellular selectivity assay, TNFα trigger, IL-6 ELISA readout. To be noted: TNFα trigger 10 ng/mL; for IC50: Homo sapiens; for TNFα trigger IL-6 PIN at 20 μM: percent inhibition at 20 μM compound. Type of assay: cell-based, human. The text has this: The aim of this assay is to evaluate the selectivity of compounds of the invention for the activated TLR/IRAK-4 pathway in an in vitro human cellular assay setting. SW1353 cells are from a chondrocytic cell line and are responsive to both the interleukin 1 (IL-1) and the TNFα cytokine triggers. Both cytokine triggers induce the expression of interleukin 6 (IL-6) and MMP13 by these cells. IL-6 and MMP13 releases are used as readouts in this assay and represent a measure for the level of inhibition of the TLR/IRAK-4 pathway by the tested compound.
SW1353 cells are cultured in DMEM supplemented with 10% FBS and 1% Penicillin/Streptomycin. Cells are incubated at 37° C. in a humidified atmosphere of 5% CO2 and subcultured twice a week. During subculturing, trypsin-EDTA is used to detach the cells, followed by a neutralization step with cell culture medium. After centrifugation (1,000 rpm during 5 min), the pellet is resuspended in cell culture medium and cells are counted using an automated cell counter (Invitrogen Countess™).
Cells are used at passage 16 and plated at a density of 15,000 cells per well in 120 μL cell culture medium in 96-well culture plates. Cells are allowed to attach during overnight incubation.
SW1353 cells are pre-incubated with test compound by addition of 15 μL of 10× concentrated compound solution for 2 h at 37° C. and 5% CO2. The compounds are tested at different concentrations and prepared by 3-fold serial dilutions from the 10 mM stock solution in DMSO followed by a 1/50 dilution step in cell culture medium. Final test concentrations in the assay start from 20 μM, with subsequent 3-fold serial dilutions with equal final DMSO concentrations of 0.2%. After the compound pre-incubation step, the SW1353 cells are triggered by addition of 15 μL of 10× concentrated IL-1f (Peprotech, 200-01B) or TNFα trigger (Peprotech, 300-01A) to the wells with final assay volume of 150 μL per well and final trigger concentration of 1 ng/mL and 10 ng/mL, respectively. Negative controls are adjusted with equal DMSO concentrations without trigger. The assay plates are then incubated in a humidified incubator at 37° C. and 5% CO2. Cell supernatants are harvested 24 h and 48 h later by transferring the cell medium into a V-bottom polypropylene 96-well plate and stored at −80° C. until ELISA readout.
The levels of secreted IL-6 in the cell supernatants are quantified in an enzyme-linked immunosorbent assay (ELISA). […] Luminescence of the converted substrate is measured with a Luminoskan™ Ascent luminometer.
All controls are measured within the linear range of the human IL-6 and MMP13 standard curve of the ELISA. […]
A general note: In an ELISA, binding on a coated surface is turned into a signal by an enzyme label.

Each structure is given as a SMILES string.

What is called IC50 is the point on the concentration scale where inhibition reaches its midpoint. Turning to `C[C@]1(O)CC[C@@H](Nc2nc3c(cc2OCCOCCO)ncn3-c2ccc(C#N)cn2)CC1` [Compound 12, 6-[6-[2-(2-hydroxyethoxy)ethoxy]-5-[((cis-1,4)-4-hydroxy-4-methylcyclohexyl)amino]imidazo[4,5-b]pyridin-3-yl]pyridine-3-carbonitrile], the IC50 at human IRAK-4 is 0.95 nM; in assay [1], > 20000 nM. Also, in assay [1], the “TNFα trigger IL-6 PIN at 20 μM” value was “[22%]”.
The like results for `N#Cc1ccc(-n2cnc3cc(OCCOCCO)c(NC4CCOCC4)nc32)nc1` [Compound 1, 6-[6-[2-(2-hydroxy-ethoxy)-ethoxy]-5-(tetrahydro-pyran-4-ylamino)-imidazo[4,5-b]pyridin-3-yl]-nicotinonitrile] were, in that order, 6.35 nM, > 20000 nM and “[54%]”.

The values are drawn from US10508111B2, “6-[5-amino-6-(2-ethoxyethoxy)-imidazo[4,5-B]pyridin-3-yl]-nicotinonitrile derivatives and their use as IRAK inhibitors” (GALAPAGOS NV, priority 2015, dated 2019).
